The kinase profiling compilation of Christmann-Franck et al. (2016)

Legend:
Assay in all cases: KINOMEscan competition binding
Details in all cases: compound 10.0 µM
NLK (human) = NLK (human) (UniProt Q9UBE8)
MAPK14 (human) = MAPK14 (human) (UniProt Q16539)
MAPK7 (human) = MAPK7 (human) (UniProt Q13164)
EPHA2 (human) = EPHA2 (human) (UniProt P29317)
CAMK4 (human) = CAMK4 (human) (UniProt Q16566)
BMPR1B (human) = BMPR1B (human) (UniProt O00238)
CAMKK1 (human) = CAMKK1 (human) (UniProt Q8N5S9)
NEK2 (human) = NEK2 (human) (UniProt P51955)
ULK1 (human) = ULK1 (human) (UniProt O75385)
MET (human) = MET (human) (UniProt P08581)
MAP2K3 (human) = MAP2K3 (human) (UniProt P46734)
PIK3C2G (human) = PIK3C2G (human) (UniProt O75747)
MAP2K5 (human) = MAP2K5 (human) (UniProt Q13163)
STK10 (human) = STK10 (human) (UniProt O94804)
BRSK1 (human) = BRSK1 (human) (UniProt Q8TDC3)
RET (human) = RET (human) (UniProt P07949)
PAK6 (human) = PAK6 (human) (UniProt Q9NQU5)
RPS6KA1 KD1 (human) = RPS6KA1 KD1 (human) (UniProt Q15418)
RIOK1 (human) = RIOK1 (human) (UniProt Q9BRS2)
RPS6KA6 KD1 (human) = RPS6KA6 KD1 (human) (UniProt Q9UK32)
BMPR1A (human) = BMPR1A (human) (UniProt P36894)
DAPK3 (human) = DAPK3 (human) (UniProt O43293)
NUAK2 (human) = NUAK2 (human) (UniProt Q9H093)
CLK4 (human) = CLK4 (human) (UniProt Q9HAZ1)
PKN3 (M.tuberculosis) = PKN3 (M.tuberculosis) (UniProt Q6P5Z2)
DDR2 (human) = DDR2 (human) (UniProt Q16832)
PKN2 (human) = PKN2 (human) (UniProt Q16513)
FLT4 (human) = FLT4 (human) (UniProt P35916)
MAP4K4 (human) = MAP4K4 (human) (UniProt O95819)
FER (human) = FER (human) (UniProt P16591)
ACVR1B (human) = ACVR1B (human) (UniProt P36896)
TAOK3 (human) = TAOK3 (human) (UniProt Q9H2K8)
MAK (human) = MAK (human) (UniProt P20794)
PHKG1 (human) = PHKG1 (human) (UniProt Q16816)
TGFBR1 (human) = TGFBR1 (human) (UniProt P36897)
PDGFRA (human) = PDGFRA (human) (UniProt P16234)
FES (human) = FES (human) (UniProt P07332)
PIM2 (human) = PIM2 (human) (UniProt Q9P1W9)
FGFR2 (human) = FGFR2 (human) (UniProt P21802)
IGF1R (human) = IGF1R (human) (UniProt P08069)

FGFR2 (human), sequence (P21802 whole entry, looked up): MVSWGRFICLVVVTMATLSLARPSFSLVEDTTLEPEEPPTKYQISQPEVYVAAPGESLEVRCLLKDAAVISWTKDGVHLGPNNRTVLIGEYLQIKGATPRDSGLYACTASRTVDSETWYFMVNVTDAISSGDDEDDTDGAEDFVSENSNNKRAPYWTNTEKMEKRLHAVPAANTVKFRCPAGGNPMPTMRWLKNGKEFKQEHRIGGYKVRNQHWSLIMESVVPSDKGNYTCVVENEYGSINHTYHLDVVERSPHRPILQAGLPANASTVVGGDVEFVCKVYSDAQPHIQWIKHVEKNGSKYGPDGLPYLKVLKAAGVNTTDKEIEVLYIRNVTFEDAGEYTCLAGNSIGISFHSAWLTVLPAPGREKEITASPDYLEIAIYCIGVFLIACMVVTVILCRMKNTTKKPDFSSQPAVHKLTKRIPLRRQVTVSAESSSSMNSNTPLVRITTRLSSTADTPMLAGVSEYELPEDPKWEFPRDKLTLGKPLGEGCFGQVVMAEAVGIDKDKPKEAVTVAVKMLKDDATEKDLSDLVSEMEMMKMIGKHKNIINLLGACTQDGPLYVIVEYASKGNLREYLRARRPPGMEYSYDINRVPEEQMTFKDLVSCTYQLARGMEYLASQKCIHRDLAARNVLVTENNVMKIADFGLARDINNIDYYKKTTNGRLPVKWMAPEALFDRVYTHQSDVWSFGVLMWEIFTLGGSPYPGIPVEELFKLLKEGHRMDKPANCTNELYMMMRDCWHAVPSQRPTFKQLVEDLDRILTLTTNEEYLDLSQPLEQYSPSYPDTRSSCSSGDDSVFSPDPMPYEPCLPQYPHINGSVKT
PKN3 (M.tuberculosis), sequence (Q6P5Z2 whole entry, looked up): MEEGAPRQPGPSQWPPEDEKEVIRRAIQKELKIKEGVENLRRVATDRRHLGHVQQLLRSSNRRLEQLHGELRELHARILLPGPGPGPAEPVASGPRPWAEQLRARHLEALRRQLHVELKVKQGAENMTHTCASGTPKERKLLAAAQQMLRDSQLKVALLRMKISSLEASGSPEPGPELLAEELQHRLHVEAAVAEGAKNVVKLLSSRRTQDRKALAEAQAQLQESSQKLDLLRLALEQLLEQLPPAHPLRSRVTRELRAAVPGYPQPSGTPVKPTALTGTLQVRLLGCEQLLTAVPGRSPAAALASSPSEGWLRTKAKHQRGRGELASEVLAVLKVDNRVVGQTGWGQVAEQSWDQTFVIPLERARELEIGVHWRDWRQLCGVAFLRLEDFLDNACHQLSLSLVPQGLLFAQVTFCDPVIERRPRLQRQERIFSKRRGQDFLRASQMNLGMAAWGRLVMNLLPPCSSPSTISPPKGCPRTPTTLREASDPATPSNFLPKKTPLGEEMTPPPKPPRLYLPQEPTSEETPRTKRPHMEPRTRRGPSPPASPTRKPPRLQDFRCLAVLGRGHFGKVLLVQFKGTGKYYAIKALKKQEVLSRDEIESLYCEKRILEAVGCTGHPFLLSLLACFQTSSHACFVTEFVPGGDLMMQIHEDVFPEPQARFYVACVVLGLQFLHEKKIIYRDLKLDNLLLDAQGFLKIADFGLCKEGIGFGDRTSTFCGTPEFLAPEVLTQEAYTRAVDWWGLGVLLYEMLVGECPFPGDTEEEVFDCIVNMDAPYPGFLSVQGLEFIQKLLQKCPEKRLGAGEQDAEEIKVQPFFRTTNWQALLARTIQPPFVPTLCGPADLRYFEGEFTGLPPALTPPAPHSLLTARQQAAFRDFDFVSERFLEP
BMPR1B (human), sequence (O00238 whole entry, looked up): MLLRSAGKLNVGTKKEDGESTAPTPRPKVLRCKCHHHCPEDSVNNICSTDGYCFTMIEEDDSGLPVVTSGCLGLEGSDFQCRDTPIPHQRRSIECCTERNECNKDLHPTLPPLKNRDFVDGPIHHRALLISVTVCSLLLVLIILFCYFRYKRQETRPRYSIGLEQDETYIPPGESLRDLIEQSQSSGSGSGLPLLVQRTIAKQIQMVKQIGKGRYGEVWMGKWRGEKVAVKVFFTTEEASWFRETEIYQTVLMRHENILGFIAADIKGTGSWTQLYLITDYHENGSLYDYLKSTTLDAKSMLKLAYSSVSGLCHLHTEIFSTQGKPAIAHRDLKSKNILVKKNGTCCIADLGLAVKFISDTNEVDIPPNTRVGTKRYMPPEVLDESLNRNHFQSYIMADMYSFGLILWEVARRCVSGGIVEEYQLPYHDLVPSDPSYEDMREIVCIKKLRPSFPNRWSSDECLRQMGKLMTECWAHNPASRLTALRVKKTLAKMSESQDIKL
ACVR1B (human), sequence (P36896 whole entry, looked up): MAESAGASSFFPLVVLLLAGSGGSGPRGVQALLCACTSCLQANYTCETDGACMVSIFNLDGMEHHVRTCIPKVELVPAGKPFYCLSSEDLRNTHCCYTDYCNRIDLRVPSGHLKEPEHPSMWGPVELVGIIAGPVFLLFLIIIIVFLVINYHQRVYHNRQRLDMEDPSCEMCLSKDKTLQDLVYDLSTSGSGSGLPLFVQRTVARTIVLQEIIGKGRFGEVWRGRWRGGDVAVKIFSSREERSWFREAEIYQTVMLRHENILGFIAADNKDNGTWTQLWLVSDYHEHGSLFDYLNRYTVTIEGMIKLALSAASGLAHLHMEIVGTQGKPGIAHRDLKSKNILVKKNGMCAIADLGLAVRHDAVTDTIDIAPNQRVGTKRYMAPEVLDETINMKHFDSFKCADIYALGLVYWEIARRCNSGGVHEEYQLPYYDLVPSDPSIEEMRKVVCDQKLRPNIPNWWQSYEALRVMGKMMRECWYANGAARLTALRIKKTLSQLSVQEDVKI
STK10 (human), sequence (O94804 whole entry, looked up): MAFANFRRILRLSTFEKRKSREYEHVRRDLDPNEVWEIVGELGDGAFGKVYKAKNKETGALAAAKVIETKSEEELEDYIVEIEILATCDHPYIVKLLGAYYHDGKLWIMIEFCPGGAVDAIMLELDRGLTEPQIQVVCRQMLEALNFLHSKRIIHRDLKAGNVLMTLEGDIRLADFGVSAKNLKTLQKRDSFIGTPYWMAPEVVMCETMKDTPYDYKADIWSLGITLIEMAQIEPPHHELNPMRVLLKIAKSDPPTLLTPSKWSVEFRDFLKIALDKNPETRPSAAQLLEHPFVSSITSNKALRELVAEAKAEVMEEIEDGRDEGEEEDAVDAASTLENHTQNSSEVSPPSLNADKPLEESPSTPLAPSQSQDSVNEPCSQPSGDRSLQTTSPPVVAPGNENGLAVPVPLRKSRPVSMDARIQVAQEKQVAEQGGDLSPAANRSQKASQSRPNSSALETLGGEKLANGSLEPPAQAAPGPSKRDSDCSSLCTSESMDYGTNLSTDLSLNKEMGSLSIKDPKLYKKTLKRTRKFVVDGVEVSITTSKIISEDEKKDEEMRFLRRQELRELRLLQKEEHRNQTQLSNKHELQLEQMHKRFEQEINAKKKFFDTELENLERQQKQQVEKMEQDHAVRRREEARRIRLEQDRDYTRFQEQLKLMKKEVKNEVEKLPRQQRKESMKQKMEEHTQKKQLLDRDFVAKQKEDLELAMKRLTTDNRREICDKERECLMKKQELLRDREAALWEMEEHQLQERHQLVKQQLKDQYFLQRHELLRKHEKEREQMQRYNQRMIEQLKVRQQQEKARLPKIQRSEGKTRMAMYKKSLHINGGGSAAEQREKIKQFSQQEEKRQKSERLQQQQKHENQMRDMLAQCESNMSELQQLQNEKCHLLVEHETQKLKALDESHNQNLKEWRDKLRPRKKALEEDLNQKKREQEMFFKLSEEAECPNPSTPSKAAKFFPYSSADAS
EPHA2 (human), sequence (P29317 whole entry, looked up): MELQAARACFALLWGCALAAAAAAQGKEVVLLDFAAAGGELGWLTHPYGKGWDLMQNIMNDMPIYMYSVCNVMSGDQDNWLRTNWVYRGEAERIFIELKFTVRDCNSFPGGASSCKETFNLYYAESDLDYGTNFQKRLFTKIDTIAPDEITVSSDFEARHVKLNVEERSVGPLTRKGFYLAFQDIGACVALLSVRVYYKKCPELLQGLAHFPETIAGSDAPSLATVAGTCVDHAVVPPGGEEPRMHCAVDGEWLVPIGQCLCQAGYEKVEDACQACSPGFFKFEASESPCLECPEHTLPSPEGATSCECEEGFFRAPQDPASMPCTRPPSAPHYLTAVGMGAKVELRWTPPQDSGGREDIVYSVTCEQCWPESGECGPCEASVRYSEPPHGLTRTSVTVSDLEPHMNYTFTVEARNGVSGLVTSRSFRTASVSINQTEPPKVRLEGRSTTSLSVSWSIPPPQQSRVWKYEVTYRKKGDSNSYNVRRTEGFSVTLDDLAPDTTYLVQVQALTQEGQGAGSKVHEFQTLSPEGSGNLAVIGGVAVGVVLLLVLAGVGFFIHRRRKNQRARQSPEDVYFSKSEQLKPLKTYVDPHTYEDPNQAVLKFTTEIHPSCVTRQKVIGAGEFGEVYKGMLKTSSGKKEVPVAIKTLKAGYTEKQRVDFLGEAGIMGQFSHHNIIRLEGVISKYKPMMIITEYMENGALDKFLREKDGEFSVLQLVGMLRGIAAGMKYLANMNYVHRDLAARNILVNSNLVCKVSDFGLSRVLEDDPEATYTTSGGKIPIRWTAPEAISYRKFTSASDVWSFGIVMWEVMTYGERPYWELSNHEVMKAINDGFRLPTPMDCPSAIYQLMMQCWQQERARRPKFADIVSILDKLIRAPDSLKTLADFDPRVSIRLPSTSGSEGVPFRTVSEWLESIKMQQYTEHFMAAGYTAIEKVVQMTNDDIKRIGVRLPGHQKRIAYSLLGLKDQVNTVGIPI
PHKG1 (human), sequence (Q16816 whole entry, looked up): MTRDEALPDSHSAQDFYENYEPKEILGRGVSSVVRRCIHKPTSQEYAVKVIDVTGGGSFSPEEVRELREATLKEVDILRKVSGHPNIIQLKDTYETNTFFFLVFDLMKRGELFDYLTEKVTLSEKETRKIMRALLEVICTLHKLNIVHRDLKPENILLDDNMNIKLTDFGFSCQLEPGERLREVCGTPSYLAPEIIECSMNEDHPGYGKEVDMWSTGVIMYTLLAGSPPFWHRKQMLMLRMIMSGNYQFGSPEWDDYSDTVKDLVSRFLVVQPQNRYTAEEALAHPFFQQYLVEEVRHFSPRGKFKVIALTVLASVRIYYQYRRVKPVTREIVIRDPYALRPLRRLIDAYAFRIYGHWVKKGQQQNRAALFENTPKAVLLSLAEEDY

COCC(=O)NC/C=C/c1ccc2ncnc(Nc3ccc(Oc4ccc(C)nc4)c(C)c3)c2c1
kinase still bound, per cent of control (NLK (human)): 100%
kinase still bound, per cent of control (MAPK14 (human)): 100%
kinase still bound, per cent of control (MAPK7 (human)): 100%
kinase still bound, per cent of control (EPHA2 (human)): 100%
kinase still bound, per cent of control (CAMK4 (human)): 86%
kinase still bound, per cent of control (BMPR1B (human)): 74%
kinase still bound, per cent of control (CAMKK1 (human)): 96%
kinase still bound, per cent of control (NEK2 (human)): 100%
kinase still bound, per cent of control (ULK1 (human)): 47%
kinase still bound, per cent of control (MET (human)): 74%
kinase still bound, per cent of control (MAP2K3 (human)): 100%
kinase still bound, per cent of control (PIK3C2G (human)): 24%
kinase still bound, per cent of control (MAP2K5 (human)): 0.2%
kinase still bound, per cent of control (STK10 (human)): 4.2%
kinase still bound, per cent of control (BRSK1 (human)): 100%
kinase still bound, per cent of control (RET (human)): 87%
kinase still bound, per cent of control (PAK6 (human)): 89%
kinase still bound, per cent of control (RPS6KA1 KD1 (human)): 100%
kinase still bound, per cent of control (RIOK1 (human)): 91%
kinase still bound, per cent of control (RPS6KA6 KD1 (human)): 96%
kinase still bound, per cent of control (BMPR1A (human)): 17%
kinase still bound, per cent of control (DAPK3 (human)): 96%
kinase still bound, per cent of control (NUAK2 (human)): 100%
kinase still bound, per cent of control (CLK4 (human)): 100%
kinase still bound, per cent of control (PKN3 (M.tuberculosis)): 23%
kinase still bound, per cent of control (DDR2 (human)): 100%
kinase still bound, per cent of control (PKN2 (human)): 99%
kinase still bound, per cent of control (FLT4 (human)): 98%
kinase still bound, per cent of control (MAP4K4 (human)): 97%
kinase still bound, per cent of control (FER (human)): 100%
kinase still bound, per cent of control (ACVR1B (human)): 100%
kinase still bound, per cent of control (TAOK3 (human)): 100%
kinase still bound, per cent of control (MAK (human)): 90%
kinase still bound, per cent of control (PHKG1 (human)): 100%
kinase still bound, per cent of control (TGFBR1 (human)): 100%
kinase still bound, per cent of control (PDGFRA (human)): 56%
kinase still bound, per cent of control (FES (human)): 100%
kinase still bound, per cent of control (PIM2 (human)): 100%
kinase still bound, per cent of control (FGFR2 (human)): 100%
kinase still bound, per cent of control (IGF1R (human)): 83%
